Entries after “also recorded” stand apart in the source; their conditions may differ.
Assays:
ATP7B = experiment: Endogenous ATP7B expression after miR-133a transfection (qPCR, western blot); type: cell-based, human
Description: (§1) Human miR-133a precursor (PM10413) was purchased from Thermo Fisher Scientific. […] Cells were transfected with miRNAs using Lipofectamine 2000 (Invitrogene). Cells transfected with miRNA were harvested 12 h to 48 h post-transfection.
(§2) Protein concentration was measured by the Bradford DC protein assay (Bio-Rad, Hercules, Calif.). 5-20 μg of protein from each sample were separated on 10% Bis-Tris-polyacrylamide gel through electrophoresis and blotted onto nitrocellulose membranes (GE Healthcare, Piscataway, N.J.). Blots were immunostained with primary antibodies at 4° C. overnight and secondary antibody at room temperature for 1 h. Protein was visualized using ECL Plus Western Blotting Detection Reagents (GE Healthcare). Independent experiments were performed at least twice.
(§3) To characterize the chemosensitizing property of miR-133a to oxaliplatin treatment, miR-133a targets that regulated the metabolism of oxaliplatin were searched for. Increased drug efflux and activation of detoxification system are two major aspects that induce Platinum-based drugs resistance (15). Previous studies indicate that ATPase Cu++ transporting beta polypeptide (ATP7B), ATP-binding cassette sub-family C member 1 (ABCC1) and γ-glutamylcysteine liganse (GCLC) regulated Platinum-based drugs efflux and detoxification (16-21). […]

human GCLC 3′-UTR = experiment: Dual-luciferase reporter assay, GCLC 3′UTR; type: cell-based
Description: (§4) Wild-type or mutanted human ATP7B, ABCC1 and GCLC 3′-UTR were cloned into pMIR-REPORT vector (Thermo Fisher Scientific) at the SacI and SpeI sites, respectively. Co-transfection of reporter plasmids and miRNA in 24-well plates were carried out with lipofectamine 2000 as described by the manufacture. Per well, 195 ng luciferase report plasmid, 5 ng pRL-cytomegalovirus (CMV) vector and 15 pmole miRNA were applied. Cells were harvested 48 h post-transfection and luciferase activities were analyzed by the dual-luciferase reporter assay system (Promega, Madison, Wis.).
(§5) To characterize the chemosensitizing property of miR-133a to oxaliplatin treatment, miR-133a targets that regulated the metabolism of oxaliplatin were searched for. Increased drug efflux and activation of detoxification system are two major aspects that induce Platinum-based drugs resistance (15). Previous studies indicate that ATPase Cu++ transporting beta polypeptide (ATP7B), ATP-binding cassette sub-family C member 1 (ABCC1) and γ-glutamylcysteine liganse (GCLC) regulated Platinum-based drugs efflux and detoxification (16-21). […] Furthermore, their predicted 3′UTR binding sites, as well as their mutant form, were attached to firefly luciferase reporter gene, respectively. miR-133a repressed wild-type ATP7B, ABCC1, and GCLC-3′UTR reporter activity for about 64%, 56% and 42%, respectively (FIG. 5A, P<0.05).

ABCC1 = experiment: Endogenous ABCC1 expression after miR-133a transfection (qPCR, western blot); type: cell-based, human
Description: as §1, §2, §3

GCLC = experiment: Endogenous GCLC expression after miR-133a transfection (qPCR, western blot); type: cell-based, human
Description: as §1, §2, §3

human ATP7B 3′-UTR = experiment: Dual-luciferase reporter assay, ATP7B 3′UTR; type: cell-based
Description: as §4, §5

[1] = system: CRC cell lines (HT29, SW1116, HCT116, HCT116p53−/−, RKO, DLD1); experiment: MTT cell viability assay: oxaliplatin sensitization after ectopic miR-133a expression; type: cell-based, human; conditions: CRC cell lines with ectopic expression of miR-133a; oxaliplatin treatment; FIG. 4
Description: as §1
After 24 h of transfection, cells were collected and seeded (500-1000/well) in a fresh 96-well plate for 5 days. Cell viability was determined using the conversion of 3-(4,5-dimethylthiazol-2-yl)-2,5-diphenyltetrazolium bromide (MTT) to formazan via mitochondrial oxidation. MTT solution was then added to each well at a final concentration of 0.2 mg/ml per well and the plates were incubated at 37° C. for another 1 h. After incubation, 200 μl of dimethyl sulfoxide was added to each well to dissolve the formazan formed and the absorbance was measured at 570 nm using a spectrophotometer. All the experiments were repeated in three independent experiments in triplicate.
To validate the role of miR-133a in oxaliplatin sensitization in vitro, miR-133a was expressed in the microsatellite stable (HT29, SW1116) and microsatellite instable CRC cell lines (HCT116, HCT116^p53−/−, RKO, DLD1), respectively. 50% inhibitory concentration (IC50) of each cell lines was calculated by means of MTT assay. Restoration of miR-133a was sufficient to result in a 1.5 to 2.9 fold sensitization to oxaliplatin treatment in all the tested cell lines (FIG. 4).

human ABCC1 3′-UTR = experiment: Dual-luciferase reporter assay, ABCC1 3′UTR; type: cell-based
Description: as §4, §5

stage IV CRC patients = experiment: Response of stage IV CRC patients to oxaliplatin-based first-line treatment (RECIST); type: in vivo, human; conditions: 42 stage IV CRC patients, oxaliplatin-based first-line therapy
Description: A cohort of 42 pairs of tumor and adjacent normal tissue FFPE blocks obtained from stage IV CRC patients who had received oxaliplatin-based treatment as first-line therapy at Prince of Wales Hospital between 2003 and 2010, and with known clinico-oncologic outcomes were identified from the prospectively collected database. Patients were classified into responders and non-responders group according to RECIST guideline (7). Responders are defined as the patients achieving complete response (CR) and partial response (PR), and non-responder group as patients with stable disease (SD) and progressive disease (PD). Overall survival (OS) was calculated from the operation day to the date of death or the last visit with censoring. The progress free survival (PFS) during first-line chemotherapy was determined from the operation day to the first-line progression as documented by either CT scan, positron emission tomography/CT scan, or Carcinoembryonic antigen (CEA). Forty-six mCRC patients received oxaliplatin-based treatment as first-line therapy at Beijing Oncology Hospital were used as a validation cohort (BJ cohort). […]
miR-133a level was next evaluated in 42 pairs paraffin blocks of tumor and adjacent normal tissues from stage IV CRC patients who had received oxaliplatin-based treatment. […]

[2] = qPCR, HCT116 and DLD1 (also HEK293)
[3] = western blot, HCT116, DLD1 and HEK293 (293T in the source)

Row | Compound | ATP7B mRNA level (ATP7B; [2]) | ATP7B protein level (ATP7B; [3]) | effect on mutant GCLC-3′UTR reporter activity (human GCLC 3′-UTR; mutant 3′UTR) | repression of wild-type GCLC-3′UTR reporter activity (human GCLC 3′-UTR; wild-type 3′UTR, P<0.05) [%] | ABCC1 mRNA level (ABCC1; [2]) | ABCC1 protein level (ABCC1; [3]) | GCLC mRNA level (GCLC; [2]) | GCLC protein level (GCLC; [3]) | effect on mutant ATP7B-3′UTR reporter activity (human ATP7B 3′-UTR; mutant 3′UTR) | repression of wild-type ATP7B-3′UTR reporter activity (human ATP7B 3′-UTR; wild-type 3′UTR, P<0.05) | IC50 compared with the control group [1] | effect on mutant ABCC1-3′UTR reporter activity (human ABCC1 3′-UTR; mutant 3′UTR) | repression of wild-type ABCC1-3′UTR reporter activity (human ABCC1 3′-UTR; wild-type 3′UTR, P<0.05) [%] | objective response rate (stage IV CRC patients) [%]
1 | hsa-miR-133a-3p (UUUGGUCCCCUUCAACCAGCUG; precursor form, further chemistry not given here; listed as Homo sapiens) [Human miR-133a precursor purchased from Thermo Fisher Scientific, transfected into cells] | significantly suppressed; also recorded: remarkably reduced; also recorded: decreased | remarkably reduced; also recorded: decreased | no inhibition effect | ~42 | significantly suppressed; also recorded: remarkably reduced; also recorded: decreased | remarkably reduced; also recorded: decreased | significantly suppressed; also recorded: remarkably reduced; also recorded: decreased | remarkably reduced; also recorded: decreased | no inhibition effect | about 64% | lower | no inhibition effect | ~56 | 
2 | O=C1[O][Pt]2([NH][C@@H]3CCCC[C@H]3[NH]2)[O]C1=O [oxaliplatin, Oxaliplatin] |  |  |  |  |  |  |  |  |  |  |  |  |  | 29

From patent publication US10900091B2, “miR-133a as a marker for colorectal cancer” (The Chinese University of Hong Kong, priority 2019, dated 2021)
